Test results as given in ChEMBL document CHEMBL1201862, “PubChem BioAssay data set” (2004).
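Where inhibition never reached the appropriate level, the endpoint shown equals the highest concentration tested. Otherwise, values were interpolated linearly from a five-concentration, 48-hour dose response in 96-well plates. Abbreviation: GI50, concentration required for 50% inhibition of growth.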 Activity calls are given as the source filed them. Cut-off read from the data, not from the text of the source: active = GI50 up to about 1.1 µM and inactive = higher.

Assays:
Experiment in all cases: inhibition of tumour cell growth, NCI panel, 48 h
786-0 = system: 786-0
A498 = system: A498
A549 = system: A549
ACHN = system: ACHN
BT-549 = system: BT-549
CAKI-1 = system: CAKI-1
CCRF-CEM = system: CCRF-CEM
COLO 205 = system: COLO 205
DU-145 = system: DU-145
EKVX = system: EKVX
HCT-116 = system: HCT-116
HCT-15 = system: HCT-15
HL-60 = system: HL-60
HOP-62 = system: HOP-62
HOP-92 = system: HOP-92
HT-29 = system: HT-29
Hs-578T = system: Hs-578T
IGROV-1 = system: IGROV-1
K562 = system: K562
KM12 = system: KM12
LOX IMVI = system: LOX IMVI
M14 = system: M14
MCF7 = system: MCF7
MDA-MB-231 = system: MDA-MB-231
MDA-MB-435 = system: MDA-MB-435
MDA-N = system: MDA-N
MOLT-4 = system: MOLT-4
NCI-H226 = system: NCI-H226
NCI-H23 = system: NCI-H23
NCI-H460 = system: NCI-H460
NCI/ADR-RES = system: NCI/ADR-RES
OVCAR-3 = system: OVCAR-3
OVCAR-5 = system: OVCAR-5
OVCAR-8 = system: OVCAR-8
PC-3 = system: PC-3
RPMI-8226 = system: RPMI-8226
SF-268 = system: SF-268
SF-295 = system: SF-295
SF-539 = system: SF-539
SK-MEL-28 = system: SK-MEL-28
SK-MEL-2 = system: SK-MEL-2
SK-MEL-5 = system: SK-MEL-5
SK-OV-3 = system: SK-OV-3
SN12C = system: SN12C
SNB-19 = system: SNB-19
SNB-75 = system: SNB-75
SR = system: SR
SW-620 = system: SW-620
T47D = system: T47D
TK-10 = system: TK-10
U-251 = system: U-251
UACC-257 = system: UACC-257
UACC-62 = system: UACC-62
UO-31 = system: UO-31
HCC 2998 = system: HCC 2998
Malme-3M = system: Malme-3M
NCI-H522 = system: NCI-H522
OVCAR-4 = system: OVCAR-4
RXF 393 = system: RXF 393

Compound: CCCC1C2=C(C(=O)OC2=O)C2C(CC)CC3=C(C(=O)OC3=O)C12 (configuration not stated)
- GI50 (786-0): > 100 µM (inactive)
- GI50 (A498): > 100 µM (inactive)
- GI50 (A549): > 100 µM (inactive)
- GI50 (ACHN): > 100 µM (inactive)
- GI50 (BT-549): > 100 µM (inactive)
- GI50 (CAKI-1): > 100 µM (inactive)
- GI50 (CCRF-CEM): > 100 µM (inactive)
- GI50 (COLO 205): > 100 µM (inactive)
- GI50 (DU-145): > 100 µM (inactive)
- GI50 (EKVX): > 100 µM (inactive)
- GI50 (HCT-116): > 100 µM (inactive)
- GI50 (HCT-15): > 100 µM
- GI50 (HL-60): > 100 µM (inactive)
- GI50 (HOP-62): > 100 µM (inactive)
- GI50 (HOP-92): > 100 µM (inactive)
- GI50 (HT-29): > 100 µM (inactive)
- GI50 (Hs-578T): 18.4 µM (inactive)
- GI50 (IGROV-1): > 100 µM (inactive)
- GI50 (K562): > 100 µM (inactive)
- GI50 (KM12): > 100 µM (inactive)
- GI50 (LOX IMVI): > 100 µM (inactive)
- GI50 (M14): > 100 µM (inactive)
- GI50 (MCF7): > 100 µM (inactive)
- GI50 (MDA-MB-231): > 100 µM (inactive)
- GI50 (MDA-MB-435): > 100 µM (inactive)
- GI50 (MDA-N): > 100 µM (inactive)
- GI50 (MOLT-4): > 100 µM (inactive)
- GI50 (NCI-H226): > 100 µM (inactive)
- GI50 (NCI-H23): > 100 µM (inactive)
- GI50 (NCI-H460): > 100 µM (inactive)
- GI50 (NCI/ADR-RES): > 100 µM (inactive)
- GI50 (OVCAR-3): > 100 µM (inactive)
- GI50 (OVCAR-5): > 100 µM (inactive)
- GI50 (OVCAR-8): > 100 µM (inactive)
- GI50 (PC-3): > 100 µM (inactive)
- GI50 (RPMI-8226): > 100 µM (inactive)
- GI50 (SF-268): > 100 µM (inactive)
- GI50 (SF-295): > 100 µM (inactive)
- GI50 (SF-539): > 100 µM (inactive)
- GI50 (SK-MEL-28): > 100 µM (inactive)
- GI50 (SK-MEL-2): > 100 µM (inactive)
- GI50 (SK-MEL-5): > 100 µM (inactive)
- GI50 (SK-OV-3): > 100 µM (inactive)
- GI50 (SN12C): > 100 µM (inactive)
- GI50 (SNB-19): > 100 µM (inactive)
- GI50 (SNB-75): > 100 µM (inactive)
- GI50 (SR): > 100 µM (inactive)
- GI50 (SW-620): > 100 µM (inactive)
- GI50 (T47D): > 100 µM (inactive)
- GI50 (TK-10): > 100 µM (inactive)
- GI50 (U-251): > 100 µM (inactive)
- GI50 (UACC-257): > 100 µM (inactive)
- GI50 (UACC-62): > 100 µM (inactive)
- GI50 (UO-31): > 100 µM (inactive)

Compound: CCCCNC(=O)c1cc(S(=O)(=O)n2ccnc2O)c(SC)cc1Cl
- GI50 (786-0): > 100 µM (inactive)
- GI50 (A498): 26.1 µM (inactive)
- GI50 (A549): > 100 µM (inactive)
- GI50 (ACHN): > 100 µM (inactive)
- GI50 (BT-549): > 100 µM (inactive)
- GI50 (CAKI-1): > 100 µM (inactive)
- GI50 (CCRF-CEM): > 100 µM (inactive)
- GI50 (COLO 205): > 100 µM (inactive)
- GI50 (DU-145): > 100 µM (inactive)
- GI50 (EKVX): > 100 µM (inactive)
- GI50 (HCC 2998): > 100 µM (inactive)
- GI50 (HCT-116): > 100 µM (inactive)
- GI50 (HCT-15): > 100 µM
- GI50 (HL-60): > 100 µM (inactive)
- GI50 (HOP-62): > 100 µM (inactive)
- GI50 (HT-29): > 100 µM (inactive)
- GI50 (Hs-578T): > 100 µM (inactive)
- GI50 (IGROV-1): > 100 µM (inactive)
- GI50 (K562): > 100 µM (inactive)
- GI50 (KM12): > 100 µM (inactive)
- GI50 (LOX IMVI): > 100 µM (inactive)
- GI50 (M14): > 100 µM (inactive)
- GI50 (MCF7): > 100 µM (inactive)
- GI50 (MDA-MB-231): > 100 µM (inactive)
- GI50 (MDA-MB-435): > 100 µM (inactive)
- GI50 (MDA-N): > 100 µM (inactive)
- GI50 (MOLT-4): > 100 µM (inactive)
- GI50 (Malme-3M): > 100 µM (inactive)
- GI50 (NCI-H23): > 100 µM (inactive)
- GI50 (NCI-H460): > 100 µM (inactive)
- GI50 (NCI-H522): > 100 µM (inactive)
- GI50 (NCI/ADR-RES): > 100 µM (inactive)
- GI50 (OVCAR-3): > 100 µM (inactive)
- GI50 (OVCAR-4): > 100 µM (inactive)
- GI50 (OVCAR-5): > 100 µM (inactive)
- GI50 (OVCAR-8): > 100 µM (inactive)
- GI50 (PC-3): > 100 µM (inactive)
- GI50 (RPMI-8226): > 100 µM (inactive)
- GI50 (RXF 393): > 100 µM (inactive)
- GI50 (SF-268): > 10 µM (inactive)
- GI50 (SF-295): > 100 µM (inactive)
- GI50 (SF-539): > 100 µM (inactive)
- GI50 (SK-MEL-28): > 100 µM (inactive)
- GI50 (SK-MEL-2): > 100 µM (inactive)
- GI50 (SK-MEL-5): > 100 µM (inactive)
- GI50 (SK-OV-3): > 100 µM (inactive)
- GI50 (SN12C): > 100 µM (inactive)
- GI50 (SNB-19): > 100 µM (inactive)
- GI50 (SR): > 100 µM (inactive)
- GI50 (SW-620): > 100 µM (inactive)
- GI50 (T47D): > 100 µM (inactive)
- GI50 (TK-10): > 100 µM (inactive)
- GI50 (U-251): > 100 µM (inactive)
- GI50 (UACC-257): > 100 µM (inactive)
- GI50 (UACC-62): > 100 µM (inactive)
- GI50 (UO-31): > 100 µM (inactive)

Compound: CCCCCC(C(O)C#N)C(O)(C(F)(F)F)C(F)(F)F (configuration not stated)
- GI50 (786-0): > 10 µM (inactive)
- GI50 (A549): > 10 µM (inactive)
- GI50 (ACHN): > 10 µM (inactive)
- GI50 (BT-549): > 10 µM (inactive)
- GI50 (CAKI-1): > 10 µM (inactive)
- GI50 (CCRF-CEM): > 10 µM (inactive)
- GI50 (COLO 205): > 10 µM (inactive)
- GI50 (DU-145): > 10 µM (inactive)
- GI50 (HCC 2998): > 10 µM (inactive)
- GI50 (HCT-116): > 10 µM (inactive)
- GI50 (HCT-15): > 10 µM
- GI50 (HL-60): > 10 µM (inactive)
- GI50 (HOP-62): > 10 µM (inactive)
- GI50 (HOP-92): > 10 µM (inactive)
- GI50 (HT-29): > 10 µM (inactive)
- GI50 (Hs-578T): > 10 µM (inactive)
- GI50 (IGROV-1): > 10 µM (inactive)
- GI50 (K562): > 10 µM (inactive)
- GI50 (KM12): > 10 µM (inactive)
- GI50 (LOX IMVI): > 10 µM (inactive)
- GI50 (M14): > 10 µM (inactive)
- GI50 (MCF7): > 10 µM (inactive)
- GI50 (MDA-MB-231): > 10 µM (inactive)
- GI50 (MDA-MB-435): > 10 µM (inactive)
- GI50 (MDA-N): > 10 µM (inactive)
- GI50 (MOLT-4): > 10 µM (inactive)
- GI50 (Malme-3M): > 10 µM (inactive)
- GI50 (NCI-H23): > 10 µM (inactive)
- GI50 (NCI-H522): > 10 µM (inactive)
- GI50 (NCI/ADR-RES): > 10 µM (inactive)
- GI50 (OVCAR-3): > 10 µM (inactive)
- GI50 (OVCAR-4): > 10 µM (inactive)
- GI50 (OVCAR-5): > 10 µM (inactive)
- GI50 (OVCAR-8): > 10 µM (inactive)
- GI50 (PC-3): > 10 µM (inactive)
- GI50 (RPMI-8226): > 10 µM (inactive)
- GI50 (SF-268): > 10 µM (inactive)
- GI50 (SF-295): > 10 µM (inactive)
- GI50 (SF-539): > 10 µM (inactive)
- GI50 (SK-MEL-28): > 10 µM (inactive)
- GI50 (SK-MEL-5): > 10 µM (inactive)
- GI50 (SK-OV-3): > 10 µM (inactive)
- GI50 (SN12C): > 10 µM (inactive)
- GI50 (SNB-19): > 10 µM (inactive)
- GI50 (SNB-75): > 10 µM (inactive)
- GI50 (SR): > 10 µM (inactive)
- GI50 (SW-620): > 10 µM (inactive)
- GI50 (T47D): > 10 µM (inactive)
- GI50 (TK-10): > 10 µM (inactive)
- GI50 (U-251): > 10 µM (inactive)
- GI50 (UACC-257): > 10 µM (inactive)
- GI50 (UACC-62): > 10 µM (inactive)
